Experimental data as given in patent US20230129485A1, “SYSTEM AND METHOD FOR DETERMINING MATERIAL PROPERTIES OF MOLECULAR SYSTEMS FROM AN AB-INITIO PARAMETERIZED FORCE-FIELD” (InterX, Inc., priority 2021, published 2023).
Like-named read-outs stand apart in the source and are kept apart here.

How the values were obtained:
[1] = Free energy of hydration by Polarizable Continuum Model (PCM); details: absolute error vs Exp (hydration)
Procedure, shortened: (§1)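 Computed, not measured. COSMO: run in MolPro on the dataset. SMD/PCM: predicted values supplied externally. SMD, PCM, COSMO-RS restricted to the overlap with the QM-parameterized force field molecule set.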

[2] = Free energy of hydration by COSMO implicit solvent model (MolPro ver. 2012); details: absolute error vs Exp (hydration)
Procedure, shortened: as §1

[3] = implicit solvent model, values received; cited from earlier work
[4] = Free energy of hydration by Solvation Model Dielectric (SMD) implicit solvent model; details: absolute error vs Exp (hydration)
Procedure, shortened: as §1

[5] = Table 5; free energy of hydration, GAFF prediction taken from literature; cited from earlier work
[6] = Free energy of hydration predicted by General Amber Force Field (GAFF), from literature; details: Table 5; error of GAFF hydration free energy vs experiment
[7] = Free energy of hydration by COSMO-RS
Procedure, shortened: as §1

[8] = free energy of hydration, experimental, cited from earlier work; for water Exp (hydration): Table 3; for Exp (hydration): Table 5
[9] = Free energy of hydration predicted with the QM-parameterized force field model (ARROW FF), classical MD and PIMD simulation in a water box; details: for water Arrow MD Error / water Arrow PIMD8 Error: Table 3; for water Arrow MD Error: absolute error of MD hydration free energy vs experiment; for water Arrow PIMD8 Error: absolute error of PIMD8 hydration free energy vs experiment; for Arrow error: Table 5, error of Arrow PIMD8 hydration free energy vs experiment; for Arrow PIMD8 Error: absolute error vs Exp (hydration)
Procedure, shortened: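 Solute decoupled from solvent in a 32×32×32 Å3 water box (PME, 9 Å cutoffs), electrostatics, exchange-repulsion and dispersion switched off together over 15 lambda points with soft-coring. Steepest-descent minimization, 50 ps equilibration, 1 ns NPT production at 1 atm; classical and path-integral MD. Free energy from BAR and TI.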

[10] = Table 3; CHEX/H2O partition coefficient, experimental; cited from earlier work
[11] = Table 3; free energy of solvation in cyclohexane, experimental; cited from earlier work
[12] = CHEX/H2O partition coefficient (log D) predicted with the QM-parameterized force field model (ARROW FF)
Procedure, shortened: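 Cyclohexane/water partition coefficients were predicted by molecular simulation with a QM-parameterized force field, with bonded force constants and equilibrium values fitted to MP2/aug-cc-pVTZ energies. Solutes carried neutral functional groups, and results from four independent groups were averaged.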

[13] = Table 5; free energy of hydration, AMOEBA prediction taken from literature; cited from earlier work
[14] = implicit solvent model, values received; cited from earlier work; remark: listed apart in the source
[15] = Free energy of hydration predicted by polarizable AMOEBA force field, from literature; details: Table 5; error of AMOEBA hydration free energy vs experiment

Row | Structure (SMILES) | PCM Error [1] [kcal/mol] | COSMO/Molpro Error [2] [kcal/mol] | SMD free energy of hydration [3] [kcal/mol] | SMD Error [4] [kcal/mol] | GAFF [5] [kcal/mol] | GAFF error [6] [kcal/mol] | COSMO-RS error [7] [kcal/mol] | water Exp (hydration) [8] [kcal/mol] | Exp (hydration) [8] [kcal/mol] | water Arrow MD Error [9] [kcal/mol] | water Arrow PIMD8 Error [9] [kcal/mol] | Arrow error [9] [kcal/mol] | Arrow PIMD8 Error [9] [kcal/mol] | Exp (log D) [10] | CHEX Exp (solvation) [11] [kcal/mol] | log D Arrow MD Error [12] | log D Arrow PIMD Error [12] | AMOEBA [13] [kcal/mol] | PCM free energy of hydration [14] [kcal/mol] | AMOEBA error [15] [kcal/mol] | also measured
1 | CCCCCCCC [Octane] | 3.19 | 3.74 | 2.70 | 0.19 | 3.13 | 0.25 | 0.10 | 2.89 | 2.88 | 1.27 | 0.06 | 0.04 | 0.06 | 6.25 | -5.63 | 0.50 | 0.20 | 1.74 | -0.30 | 1.14 | 
2 | Nc1ccccc1 [Aniline] | 1.44 | 2.13 | -4.80 | 0.74 | -5.92 | 0.38 | 0.23 | -5.54 | -5.54 | 0.17 | 0.06 | 0.06 | 0.06 | −0.01 | -5.52 |  |  | -4.78 | -4.10 | 0.76 | log D Arrow MD Error ([12]; Table 3, absolute error of MD log D vs experiment): 0.18; log D Arrow PIMD Error ([12]; Table 3, absolute error of PIMD log D vs experiment): 0.13
3 | CN(C)C [trimethylamine] | 1.90 | 0.30 | -2.50 | 0.70 | -2.32 | 0.88 | 2.55 | -3.20 | -3.20 | 1.04 | 0.02 | 0.02 | 0.02 | −0.42 | -2.63 | 0.10 | 0.43 | -2.09 | -1.30 | 1.11 | 
